In patent publication US5238964A, “Agent for treatment of cerebrovascular contraction” (Torii & Co., Ltd., priority 1990, dated 1993):

Tests used:
[1] = experimental subarachnoid bleeding in rabbits, basal arteria thickness ratio; format: in vivo, rabbit; conditions: for suppression of cerebrovascular contraction subsequent to subarachnoid bleeding: rabbits, i.v.; for Basal arteria thickness ratio: after vs before subarachnoid bleeding
Experimental: By injecting previously collected blood into the postcisterna of a rabbit, subarachnoid bleeding similar to human subarachnoid bleeding can be produced experimentally in the rabbit. The therapeutic effect of a pharmaceutical composition for treating cerebrovascular contraction is judged by comparing the thickness of the basal arteria before and after the experimental production of subarachnoid bleeding.
Subarachnoid bleeding was produced experimentally in rabbits, and 20 minutes thereafter 3 mg, 6 mg and 9 mg of 6-amidino-2-naphthyl p-guanidinobenzoate dimethanesulfonate [drawing 12] were respectively administered intravenously to the rabbits.

[2] = intermittent intravenous administration to subarachnoid bleeding patients after acute phase operation (DIND, CT low, Angiographic Spasm Scale, Glasgow Outcome Scale); format: in vivo, human (patients); conditions: for CT low due to spasm: control 43%; for good recovery (Glasgow Outcome Scale) / vegetative survival+death (Glasgow Outcome Scale): control 36%
Experimental: We have tried intermittent intravenous administration of FUT-175 (nafamostat mesilate, the present compound) for the purpose of prevention and/or treatment of cerebrovascular contraction after acute phase operation on subarachnoid bleeding patients. A dosage of 40-160 mg/day was chosen by converting the amount of drug per kg rabbit weight to amount of drug per kg of human weight.
The subjects were the ruptured cerebral aneurysm patients who had acute phase operation and belonged to Group 3 or 4 in Fisher's preoperative CT classification (Fisher, C. M., et al., "Cerebral vasospasm with ruptured saccular aneurysm-Clinical manifestations" (1977), Neurosurgery, volume 1, pages 245-248). […] Also, the subjects were limited to the cases of Grades II-IV in Hunt and Hess gravity grating without modification by previous history and to the patients to whom administration could be started within 48 hours after crisis (Hunt, W. E., et al., "Surgical risk as related to time of intervention in the repair of intracranial aneurysms" (1968), J. Neurosurg., volume 28, pages 14-20).
The compound was given to the subjects by intermittent intravenous administration starting immediately after operation. In Group A, the compound was administered twice a day, 20 mg per administration (40 mg in total daily dosage) for 4 days; four times a day, 20 mg per administration (80 mg in total daily dosage) for 4 days in Group B; and four times a day, 40 mg per administration (160 mg in total daily dosage) for 4 days in Group C. Each dose of the compound was dissolved in 100 ml of physiological saline. Time of one intravenous administration was normally 2 hours.
The control cases were the serious subarachnoid bleeding patients after acute phase clipping operation performed in our clinic in 1989. Both groups were substantially commensurate with each other in gravity grating and CT classification (Fisher classification by computed tomography), but in the control group there were slightly more cases of mycotic cerebral aneurysm than in the treated group.
There was no difference between the control and treated groups in substances of treatment excepting administration of the present compound and in operating staff. The effect of the treatment was judged by occurrence or non-occurrence of delayed ischemic neurological deficit (DIND), low-density CT area due to vasospasm and caliber change in arteries as observed by cerebral angiography conducted in the period from day 5 to day 8 (post occurrence of cerebrovascular contraction) which is considered the peak period of development of vasospasm.
For judgement of spasm in the control group, an Angiographic Spasm Scale (ASS) of the following grading was prepared:
Grade 0 (none): No caliber change in any arteries,
Grade 1 (mild): Vascular contraction is localized,
Grade 2 (moderate): Multisegmental vascular contraction is observed, and
Grade 3 (severe): Severe contraction exceeding 50% is seen in multisegmental sites (Weir, B., et al., "Time course of vasospasm in man" (1978), J. Neurosurg., volume 48, pages 173-178; Kim, H., et al., "Time course of vasospasm--Its clinical significance" (1979), Neuro. Med. Chir. (Tokyo), volume 19, pages 95-102).
The Glasgow Outcome Scale (GOS) was used to evaluate the outcome one month after crisis. According to GOS, there are five degrees: 1-death, 2-vegetative state, 3-severe disability, 4-moderate disability, 5-good recovery.

[3] = system: circulating blood coagulating action; experiment: bleeding and coagulation times measured during intravenous administration in treated groups B and C; format: in vivo, human (patients)
Excerpt: The present compound is a serine protease inhibitor which can inhibit various kinds of serine protease including C 1r, C 1s, factor B and factor D of complement system, factor XIIa, factor Xa and thrombin of coagulation system, plasma kallikrein of quinine system, plasmin of fibrinolytic system, trypsin, etc. […] It was considered that the administration method employed in this experiment would give no influence on circulating blood coagulating action of the compound.

platelet agglutination = conditions: cited from earlier work
C 1r = conditions: complement system; cited from earlier work
C 1s = conditions: complement system; cited from earlier work
[4] = system: factor B of complement system; conditions: cited from earlier work
[5] = system: factor D of complement system; conditions: cited from earlier work
factor XIIa = conditions: coagulation system; cited from earlier work
factor Xa = conditions: coagulation system; cited from earlier work
thrombin = conditions: coagulation system; cited from earlier work
plasma kallikrein = conditions: quinine system; cited from earlier work
plasmin = conditions: fibrinolytic system; cited from earlier work
trypsin = conditions: cited from earlier work
[6] = cited from earlier work
[7] = Groups A, B and C, one month after crisis
[8] = Groups B and C (higher dosage), one month after crisis
[9] = after serious subarachnoid bleeding

CS(=O)(=O)O.N=C(N)Nc1ccc(C(=O)Oc2ccc(SCCN3C(=O)CCC3=O)cc2)cc1 [4-(2-succinimidoethylthio)phenyl 4-guanidinobenzoate methanesulfonate]
suppression of cerebrovascular contraction subsequent to subarachnoid bleeding [1]: clearly suppressed the cerebrovascular contraction subsequent to subarachnoid bleeding, showing the same effect as that of the compound used in Example 1

CS(=O)(=O)O.CS(=O)(=O)O.N=C(N)Nc1ccc(C(=O)Oc2ccc3cc(C(=N)N)ccc3c2)cc1 [6-amidino-2-naphthyl p-guanidinobenzoate dimethanesulfonate]
Basal arteria thickness ratio ([1]; 3 mg/kg i.v., 1st day): 86% | Basal arteria thickness ratio ([1]; 3 mg/kg i.v., 2nd day): 79% | Basal arteria thickness ratio ([1]; 3 mg/kg i.v., 3rd day): 85% | Basal arteria thickness ratio ([1]; 3 mg/kg i.v., 4th day): 88% | Basal arteria thickness ratio ([1]; 3 mg/kg i.v., 5th day): 90% | Basal arteria thickness ratio ([1]; 6 mg/kg i.v., 1st day): 97% | Basal arteria thickness ratio ([1]; 6 mg/kg i.v., 2nd day): 95% | Basal arteria thickness ratio ([1]; 6 mg/kg i.v., 3rd day): 95% | Basal arteria thickness ratio ([1]; 6 mg/kg i.v., 4th day): 96% | Basal arteria thickness ratio ([1]; 6 mg/kg i.v., 5th day): 101% | suppression of cerebrovascular contraction subsequent to subarachnoid bleeding [1]: clearly suppressed the cerebrovascular contraction | CT-low attributable to DIND ([2]; Group A, 40 mg/day for 4 days): 2 out of 9 | cases at grade 1 of ASS ([2]; Group A, 40 mg/day for 4 days): 3 cases | cases at grade 2 of ASS ([2]; Group A, 40 mg/day for 4 days): 3 cases | cases at grade 3 of ASS ([2]; Group A, 40 mg/day for 4 days): 3 cases | incidence of DIND ([2]; Group A, 40 mg/day for 4 days): 2 out of 9 | cases at grade 0 (no caliber change in any arteries) ([2]; Group B, 80 mg/day for 4 days): 4 cases | cases at grade 1 of ASS ([2]; Group B, 80 mg/day for 4 days): 3 cases | cases at grade 3 of ASS ([2]; Group B, 80 mg/day for 4 days): one | incidence of DIND ([2]; Group B, 80 mg/day for 4 days): one out of 9 | low density area on CT scan ([2]; Group B, 80 mg/day for 4 days): no case | incidence of DIND ([2]; Group C, 160 mg/day for 4 days): no case | good in GOS (Glasgow Outcome Scale) ([2]; Group C, 160 mg/day for 4 days, one month after crisis): 4 out of 5 | subjects with no change or mild degree of contraction (angiographic spasm grading) ([2]; Groups A, B and C): 64% | ASS Grade 3 (severe) ([2]; Groups A, B and C combined): 18% | CT low due to spasm ([2]; Groups A, B and C): 9% | incidence of DIND ([2]; Groups A, B and C, control 55%): 13% | good recovery (Glasgow Outcome Scale) [2, 7]: 65% | vegetative survival+death (Glasgow Outcome Scale) [2, 7]: 9% | ASS Grade 3 (severe) ([2]; Groups B and C (higher dosage)): 8% | subjects mild or none in degree of contraction (angiographic spasm grading) ([2]; Groups B and C (higher dosage)): 85% | CT low due to spasm ([2]; Groups B and C (higher dosage)): 0% | incidence of DIND ([2]; Groups B and C (higher dosage), control 55%): 7% | good recovery (Glasgow Outcome Scale) [2, 8]: 71% | vegetative survival+death (Glasgow Outcome Scale) [2, 8]: 0% | inhibition of incidence of delayed ischemic neurological deficit [2, 9]: could inhibit incidence of delayed ischemic neurological deficit | prognosis of the patient [2, 9]: improve the prognosis of the patient | activated partial thromboplastin time (APTT) [3]: in the normal ranges | bleeding time [3]: in the normal ranges | coagulation time [3]: in the normal ranges | prothrombin time (PT) [3]: in the normal ranges | platelet agglutination inhibiting action (platelet agglutination): concentration dependent platelet agglutination inhibiting action | inhibition of C 1r (C 1r): can inhibit | inhibition of C 1s (C 1s): can inhibit | inhibition of factor B [4]: can inhibit | inhibition of factor D [5]: can inhibit | inhibition of factor XIIa (factor XIIa): can inhibit | inhibition of factor Xa (factor Xa): can inhibit | inhibition of thrombin (thrombin): can inhibit | inhibition of plasma kallikrein (plasma kallikrein): can inhibit | inhibition of plasmin (plasmin): can inhibit | inhibition of trypsin (trypsin): can inhibit | passage into tissue ([6]; in vivo): quickly passes into tissue | half-life period in blood, α phase ([6]; α phase): 1.1 min | half-life period in blood, β phase ([6]; β phase): 23.1 min
